{"source": "patent US20030135033A1", "about": "“Compounds and methods for the identification and/ or validation of a target” (priority 2002, published 2003)", "key": {"3Y1 cells": {"system": "3Y1 cells", "assay": "UV-induced apoptosis in 3Y1 cells after GeneBloc treatment (cleaved caspase 3)", "type": "cell-based, rat", "conditions": "48 h GeneBloc treatment, UV irradiation", "source_text": "Activation of the P13K pathway interferes with caspase-mediated apoptosis through Akt-activation. Apoptotic stimuli may either be cytokines like TNF, or UV-irradiation. In the present example of which the results of a Western blot analysis are shown in FIG. 7B, UV-irradiation was used as to induce apoptosis. PTEN is an inhibitor of PI-3K action. […] Activated Akt blocks caspases-mediated apoptosis. Apoptosis was monitored by the presence of cleaved Caspase 3.\nIf knock down of PTEN expression mediated by third generation antisense molecules (GeneBlocs) results in a functional activation of PI 3-kinase signalling, then increased phosphorylation and activation of Akt should interfere with the effects of apoptotic stimuli. […] It was previously shown that rat embryo fibroblasts undergo apoptosis after UV irradiation and that this response can be inhibited by activation of the PI 3-kinase pathway, and specifically by activated Akt (Kulik, G., Klippel, A. and Weber, M. J. (1997). Antiapoptotic signalling by the insulin-like growth factor I receptor, phosphatidylinositol 3-kinase, and Akt. Mol Cell Biol 17, 1595-1606)). We exposed 3Y1 cells to UV light after 48 h GeneBloc treatment. 3 h after irradiation cell extracts were harvested and analyzed for the presence of cleaved caspase 3 which is indicative for apoptosis. […] Cells which were not exposed to UV light after transfection contained very little amounts of cleaved caspase 3."}, "PTEN mRNA": {"system": "PTEN mRNA", "assay": "Immunoblot of PTEN and phosphorylated Akt after GeneBloc transfection of 3Y1 cells", "type": "cell-based, rat", "procedure": "A total of three different antisense oligonucleotides, also referred to as geneblocs herein, namely PTEN 48, PTEN 57 and PTEN 53 were transfected into rat-embryo fibroblast cell line together with a negative control comprising a randomised sequence (also referred to herein as GBC). More particularly, 3Y1 cells on 10 cm plates were transfected with 15 or 30 nM of the three different PTEN specific Geneblocs 48, 57 and 53 and with GBC. After 48 h cells were harvested and the cell extracts were analyzed by immunoblotting for the relative protein amounts of p110, Akt, phosphorylated Akt (P*-Akt) and PTEN as indicated on the right. […] The concentration dependency of the antisense oligonucleotides can be particularly well seen from the use of PTEN 57 and PTEN 53 and was confirmed by further experiments. The most powerful antisense oligonucleotide among said three antisense oligonucleotides was PTEN 53. P110 was used as a marker to reflect the loading of each of the lanes.\nIn the corresponding experiment PTEN 53 was used as the antisense oligonucleotide and a total of four mismatches were introduced to the particular sequence with the total length of PTEN 57 being 23 nucleotides. Again, GBC was used as a negative control. The sequence of the mismatch oligonucleotide is BucucauuTsTssCssTspl sTssTssGssTssGsscucacgaB (SEQ ID No. 33) with B representing an inverted abasic nucleotide. In addition an antisense oligonucleotide was prepared specific for the mRNA of luciferase inhibiting luciferase expression in cells engineered to express the recombinant firefly gene. The respective lane on the Western blot is designated as “luc”. The same experiment was carried out using either 30 nM or 60 nM antisense oligonucleotide. As mentioned in connection with FIG. 3, P110 serves as an internal loading standard.\nTransfections were carried out in 96 well or 10-cm plates (at 30% to 50% confluency) by using various cationic lipids such as Oligofectamine, Lipofectamine (Life Technologies), NC388 (Ribozyme Pharmaceuticals, Inc., Boulder, CO), or FuGene 6 (Roche) according to the manufacturer's instructions. […] molecules, including third generation antisense molecules, were transfected by adding pre-formed 5× concentrated complex of GeneBloc and lipid in serum-free medium to cells in complete medium. The total transfection volume was 100 μl for cells plated in 96 wells and 10 ml for cells in 10 cm plates. The final lipid concentration was 0.8 to 1.2 μg/ml depending on cell density; the GeneBloc concentration is indicated in each experiment.\nCells were washed twice with cold phosphate-buffered saline and lysed at 4° C. in lysis buffer containing 20 mM Tris (pH 7.5), 137 mM NaCl, 15% (vol/vol) glycerol, 1% (vol/vol) Nonidet P-40 (NP-40), 2 mM phenylmethylsulfonyl fluoride, […], 20 mM leupeptin, 2 mM benzamidine, 1 mM sodium vanadate, 25 mM […]-glycerol phosphate, 50 mM NaF and 10 mM NaPPi. Lysates were cleared by centrifugation at 14,000× g for 5 minutes and aliquots of the lysates were analyzed for protein expression by Western-blotting: Samples were separated by SDS-PAGE and transferred to nitrocellulose-filters (Schleicher & Schuell). Filters were blocked in TBST buffer (10 mM Tris-HCl (pH 7.5), 150 mM NaCl, 0.05% (vol/vol) Tween 20, 0.5% (wt/vol) sodium azide) containing 5% (wt/vol) dried milk. The respective antibodies were added in TBST at appropriate dilutions. Bound antibody was detected using anti-mouse- or anti-rabbit-conjugated horse radish peroxidase (Transduction Laboratories, BD) in TBST, washed, and developed using the SuperSignal West Dura (Pierce) or ECL (Amersham) chemoluminescence substrates. […]\nTo further ensure that Akt phosphorylation is not caused by an artefact or by stress imposed through the transfection conditions we tested various negative control third generation antisense molecules (negative control GeneBlocs). […]"}, "[1]": {"conditions": "30 nM or 60 nM, PTEN 53 versus negative control GeneBlocs"}, "[2]": {"conditions": "3Y1 cells, 15 or 30 nM GeneBloc, 48 h"}, "[3]": {"conditions": "3Y1 cells, 15 or 30 nM GeneBloc, 48 h, listed as PTEN GeneBloc 53"}}, "data": [{"substance": "ucuccuuTTGTTTCTGcuaacga (UCUCCUUTTGTTTCTGCUAACGA; chemistry not fully specified) [PTEN 53, third generation antisense oligonucleotide (GeneBloc) against PTEN]", "values": [{"measurement": "phosphorylated Akt", "setting": "3Y1 cells", "value": "phosphorylated Akt is generated"}, {"measurement": "PTEN protein / PTEN mRNA degradation (immunoblot)", "setting": "PTEN mRNA; [1]", "value": "inhibited PTEN expression"}, {"measurement": "phosphorylated Akt (P*-Akt) (immunoblot)", "setting": "PTEN mRNA; [1]", "value": "resulted in the phosphorylation of Akt"}, {"measurement": "phosphorylated Akt (P*-Akt) (immunoblot)", "setting": "PTEN mRNA; 30 nM or 60 nM, PTEN 53 versus negative control GeneBlocs, listed as PTEN GeneBloc 53", "value": "caused an increase in Akt phosphorylation"}, {"measurement": "PTEN protein (immunoblot)", "setting": "PTEN mRNA; [2]", "value": "no longer present"}, {"measurement": "phosphorylated Akt (P*-Akt) (immunoblot)", "setting": "PTEN mRNA; [2]", "value": "phosphorylated Akt could be detected"}, {"measurement": "PTEN protein (immunoblot)", "setting": "PTEN mRNA; [3]", "value": "most efficient knock down in PTEN expression"}, {"measurement": "phosphorylated Akt (P*-Akt) (immunoblot)", "setting": "PTEN mRNA; [3]", "value": "strongest increase in Akt phosphorylation"}, {"measurement": "ranking among the three PTEN antisense oligonucleotides", "setting": "PTEN mRNA; 3Y1 cells, 15 or 30 nM, 48 h", "value": "most powerful"}]}]}
